From US12606798B2, “Methods and materials for hematoendothelial differentiation of human pluripotent stem cells under defined conditions” (WISCONSIN ALUMNI RESEARCH FOUNDATION, priority 2013, dated 2026)

Assays:
Type in all cases: cell-based, human
hESCs [1] = assay: hPSC hematoendothelial differentiation on ColIV vs TenC in chemically defined conditions, flow cytometry
Experimental: (§1) Human pluripotent stem cells were detached from vitronectin or matrigel when they reached 80% confluency using 1× TrypLE (Life Technologies) and plated at an optimized density ranging from 5000 cells/cm^2 to 15,000 cells/cm^2 depending on the cell line onto 6-well plates coated with 0.5 μg/cm^2 of ColIV (Sigma-Aldrich) or 0.5 μg/cm^2 Tenascin-C (Millipore) in E8 media supplemented with 10 μM Rho Kinase inhibitor (Tocris Y-27632). After 24 hours (day 0), the media was changed to IF9S media supplemented with 50 ng/ml BMP4 (Peprotech), 15 ng/ml Activin A (Peprotech), 50 ng/ml FGF2 (Miltenyi Biotech), 2 mM LiCl (Sigma), and on occasion, 1 μM Rho Kinase inhibitor to increase cell viability. On day 2, the media was changed to IF9S media supplemented with 50 ng/ml FGF2 and 50 ng/ml VEGF, and 10 μM SB-431542 (Tocris) where mentioned. On day 4, the media was changed to IF9S media supplemented with 50 ng/ml FGF2, VEGF, TPO, SCF, IL-6, and 10 ng/ml IL-3. On day 6, additional IF9S media supplemented with the same 6 factors were added to the cultures without aspirating the old media (Table 3 Table 3). IF9S (IMDM/F12 with 9 supplements) was made in-house with the following: 50% IMDM 50% F12 (Life Technologies) supplemented with 64 mg/L L-ascorbic Acid 2-Phosphate Mg2+ salt (Sigma-Aldrich), 40 ul/L monothioglycerol (Sigma-Aldrich), 8.4 μg/L additional sodium selenite (Sigma-Aldrich), 10 mg/L polyvinyl alcohol (Sigma-Alderich), 1× glutamax (Life Technologies), 1× non-essential amino acids (Life Technologies), 0.1× chemically defined lipid concentrate (Life Technologies), 10.6 mg/L Holo-Transferrin (Sigma-Aldrich), and 20 mg/L Insulin (Sigma-Aldrich) (Table 2). Differentiation was conducted in hypoxic condition from day 0 to day 5, and transferred to normoxic condition from day 6 to day 9 (FIG. 1). The 1× TrypLE was used to dissociate and collect cells for analysis.
Flow Cytometry was conducted using the using a FACSCalibur flow cytometer and following antibodies: CD31-FITC (clone WM59), CD34-FITC (8G12), CD41a-FITC/APC (clone HIPS), CD43-FITC/PE/APC (clone 1G10), CD45-APC (clone HI30), CD73-FITC/PE (clone AD2), CD144-FITC/PE/AlexaFluor647 (clone 55-7H1), CD235a-FITC/PE/APC (clone GA-R2), KDR-PE/AlexaFluor647 (clone 89106), PDGFRα-PE (clone aR1) (BD Biosciences), TRA-1-85-FITC/PE (clone TRA-1-85), and APLNR-APC (clone 72133) (R&D Systems). Sorting was conducted on a FACS Aria, as described previously 46. The purity of isolated populations was 92-95%.

hESCs [2] = assay: Mesenchymo- (MB) and hemangioblast (HB) colony assay; details: day 2 and day 3 cultures; TenC compared with ColIV
Experimental: MB and HB were detected using serum-free CFC medium supplemented with FGF2 assay as previously described^11. Day 2 or 3 cultures were dissociated and prepared in a single-cell suspension using 1× TrypLE (Life Technologies) and 5,000 cells of the total culture were plated into the CFC media. MB and HB colonies were scored 12 days after plating the single-cell suspension.

hESCs [3] = assay: Hematopoietic CFC assay; details: day 8, TenC compared with ColIV
Experimental: Hematopoietic CFC were detected using serum-containing H4436 Methocult™ supplemented with human recombinant SCF, G-CSF, GM-CSF, IL-3, IL-6, and EPO (Stem Cell Technologies). Hematopoietic potential of AHPs was evaluated using serum-free SF H4236 methocult with added FGF2 (20 ng/ml), SCF (20 ng/mL), IL3 (10 ng/mL), IL6 (10 ng/mL), and EPO (2 U/mL) (Stem Cell Technologies) as previously described^6. 1000-10000 differentiated cells were plated into the CFC medium and the colonies were scored after 14 days of culture.

[4] = tested on: CD43+ cells collected from H1 hESCs; assay: T-cell differentiation of day 9 cultures on OP9-DLL4; details: CD43+ cells from day 9 cultures on the matrix, OP9-DLL4 coculture
Experimental: An OP9 cell line (OP9-DLL4) constitutively expressing human delta-like ligand 4 (DLL4) was established by our lab using lentivirus and was maintained similarly to OP9. After human pluripotent stem cells were differentiated for 9 days, the floating cells were collected, strained through a 70 μm cell strainer (BD Biosciences) and washed. Then, they were resuspended in T-cell differentiation media consisting of α-MEM (Gibco) supplemented with 20% FBS (Hyclone) supplemented with IL7 (5 ng/ml), Flt3L (5 ng/ml) and SCF ([…]). Then, they were plated on an OP9-DLL4 and cultured at 37° C. and 5% CO2. After 4 days, the cells were harvested using collagenase IV (Gibco) solution (1 mg/ml in DMEM/F12, Gibco) and 1× TrypLE (Invitrogen), and passaged onto a fresh layer of OP9-DLL4. After 3 days, the cells are passaged again. Subsequent passages are conducted every 7 days up to 4 weeks, after which the floating cells are collected for flow analysis and genomic DNA extraction for TCR rearrangement assay.

H1 hESCs = assay: Hematopoietic differentiation of H1 hESCs in chemically defined conditions with TGFβ inhibitor, flow cytometry
Experimental: as §1, with “analysis. Flow Cytometry was conducted using the using a FACSCalibur flow cytometer and following antibodies: CD31-FITC (clone WM59), CD34-FITC (8G12), CD41a-FITC/APC (clone HIPS), CD43-FITC/PE/APC (clone 1G10), CD45-APC (clone HI30), CD73-FITC/PE (clone AD2), CD144-FITC/PE/AlexaFluor647 (clone 55-7H1), CD235a-FITC/PE/APC (clone GA-R2), KDR-PE/AlexaFluor647 (clone 89106), PDGFRα-PE (clone aR1) (BD Biosciences), TRA-1-85-FITC/PE (clone TRA-1-85), and APLNR-APC (clone 72133) (R&D Systems). Sorting was conducted on a FACS Aria, as described previously 46. The purity of isolated populations was 92-95%. Recent studies have shown that adding TGF-β inhibitors after mesoderm specification but before endothelial development increases definitive hematopoietic differentiation.” for “analysis.”

| Compound | hematopoietic differentiation potential of CB hiPSCs (hESCs [1]; cord blood mononuclear cell-derived hiPSCs) | percentage of KDRhiAPLNR+PDGFRalphalo/− HVMPs cells (hESCs [1]; day 4, TenC compared with ColIV) | population of total CD144+ cells (HEPs, non-HEPs, AHPs) (hESCs [1]; day 5, compared to cultures differentiated on ColIV) | CD43+ hematopoietic progenitors expansion (hESCs [1]; day 8, TenC compared to ColIV) | APLNR+PDGFRalpha+ cells (hESCs [1]; days 2 and 3, TenC compared with ColIV) | MB and HB colonies (hESCs [2]) | GEMNI-CFC potential of cultures (hESCs [3]) | CFC potential of cultures (hESCs [3]; 3 experiments, p<0.01) | capacity of CD43+ cells to generate CD5+CD7+ lymphoid progenitors [4] | progression toward CD4+CD8+ T lymphoid cells ([4]; week 3) | development of PDGFRalpha-positive mesoderm cells (H1 hESCs; 10 μM added from day 2 to day 4, read on day 3) | CD31+ differentiation (H1 hESCs; 10 μM added from day 2 to day 4, read on day 4) | CD43+ population (H1 hESCs; 10 μM added from day 2 to day 4, read on day 9) | CD43+ hematopoietic progenitors (H1 hESCs; added from day 2 to day 4 only, day 8) | endothelial progenitors (H1 hESCs; added from day 2 to day 4 only, days 4 and 5) |
| --- | --- | --- | --- | --- | --- | --- | --- | --- | --- | --- | --- | --- | --- | --- | --- |
| TenC: human Tenascin C extracellular matrix protein (GenBank CAA55309.1; Millipore CC065) used as culture substrate | restored hematopoietic differentiation potential of CB hiPSCs to the level seen with hESCs and FB hiPSCs | consistently higher | larger population | expanded significantly more | significantly higher | significantly higher | significantly greater | higher CFC potential | had a capacity | observed only from CD43^+ cells generated on TenC | – | – | – | – | – |
| NC(=O)c1ccc(-c2nc(-c3ccc4c(c3)OCO4)c(-c3ccccn3)[nH]2)cc1 [SB-431542] | – | – | – | – | – | – | – | – | – | – | significantly decreases | increases | continues to increase | significant increase | increases |
